In ChEMBL document CHEMBL1914354, “Design, synthesis and antiepileptic properties of novel 1-(substituted benzylidene)-3-(1-(morpholino/piperidino methyl)-2,3-dioxoindolin-5-yl)urea derivatives” (Eur J Med Chem, 2011):
The source made the active and inactive calls. No cut-off for these calls is given here.

Tests used:
[1] = system: Mus musculus; assay: Antiepileptic activity in Swiss albino mouse assessed as protection against maximum electric shock-induced seizure at 300 mg/kg, ip after 0.5 hrs; format: functional, organism-based; set-up: dose 300 mg/kg
[2] = system: Mus musculus; assay: Antiepileptic activity in ip dosed Swiss albino mouse assessed as dose required to protect against maximum electric shock-induced seizure after 4 hrs; format: functional; conditions: read-out: MED
[3] = system: Mus musculus; assay: Antiepileptic activity in ip dosed Swiss albino mouse assessed as protection against subcutaneous pentylenetetrazol-induced clonic seizures at 300 mg/kg, ip after 4 hrs; format: functional, organism-based; set-up: dose 300 mg/kg
[4] = system: Mus musculus; assay: Antiepileptic activity in ip dosed Swiss albino mouse assessed as dose required to protect against subcutaneous pentylenetetrazol-induced clonic seizures after 0.5 hrs; format: functional; conditions: read-out: MED
[5] = system: Mus musculus; assay: Antiepileptic activity in ip dosed Swiss albino mouse assessed as protection against subcutaneous pentylenetetrazol-induced clonic seizures at 300 mg/kg, ip after 0.5 hrs; format: functional, organism-based; set-up: dose 300 mg/kg
[6] = system: Mus musculus; assay: Antiepileptic activity in Swiss albino mouse assessed as protection against maximum electric shock-induced seizure at 300 mg/kg, ip after 4 hrs; format: functional, organism-based; set-up: dose 300 mg/kg
[7] = system: Mus musculus; assay: Antiepileptic activity in ip dosed Swiss albino mouse assessed as dose required to protect against subcutaneous pentylenetetrazol-induced clonic seizures after 4 hrs; format: functional; conditions: read-out: MED
[8] = system: Mus musculus; assay: Neurotoxicity in ip dosed Swiss albino mouse assessed as dose required for minimal motor impairment after 4 hrs by rotarod test; format: toxicity, organism-based; conditions: in vivo
[9] = system: Mus musculus; assay: Antiepileptic activity in ip dosed Swiss albino mouse assessed as dose required to protect against maximum electric shock-induced seizure after 0.5 hrs; format: functional; conditions: read-out: MED
[10] = system: Mus musculus; assay: Neurotoxicity in ip dosed Swiss albino mouse assessed as dose required for minimal motor impairment after 0.5 hrs by rotarod test; format: toxicity, organism-based; conditions: in vivo
[11] = system: Mus musculus; assay: Neurotoxicity in ip dosed Swiss albino mouse assessed as minimal motor impairment at 300 mg/kg, ip after 4 hrs by rotarod test; format: toxicity, organism-based; set-up: dose 300 mg/kg, route intraperitoneal; conditions: in vivo
[12] = system: Mus musculus; assay: Neurotoxicity in Swiss albino mouse assessed as minimal motor impairment at 300 mg/kg, ip after 0.5 hrs by rotarod test; format: toxicity, organism-based; set-up: dose 300 mg/kg, route intraperitoneal; conditions: in vivo
[13] = system: Rattus norvegicus; assay: Antiepileptic activity in Wistar rat assessed as protection against maximum electric shock-induced seizure at 30 mg/kg, po after 1 hr; format: functional
[14] = system: Rattus norvegicus; assay: Antiepileptic activity in Wistar rat assessed as protection against maximum electric shock-induced seizure at 30 mg/kg, po after 0.5 hrs; format: functional
[15] = system: Rattus norvegicus; assay: Antiepileptic activity in Wistar rat assessed as protection against maximum electric shock-induced seizure at 30 mg/kg, po after 2 hrs; format: functional
[16] = system: Rattus norvegicus; assay: Neurotoxicity in Wistar rat assessed as minimal motor impairment at 30 mg/kg, po by rotarod method; format: toxicity, organism-based; set-up: dose 30 mg/kg, route oral; conditions: in vivo
[17] = system: Rattus norvegicus; assay: Antiepileptic activity in Wistar rat assessed as protection against maximum electric shock-induced seizure at 30 mg/kg, po after 0.25 hrs; format: functional
[18] = system: Mus musculus; assay: Antiepileptic activity in ip dosed Swiss albino mouse assessed as protection against subcutaneous pentylenetetrazol-induced clonic seizures at 30 to 100 mg/kg, ip after 0.5 hrs; format: functional; conditions: sc, dose mg/kg 30-100, read-out: MED
[19] = system: Rattus norvegicus; assay: Antiepileptic activity in Wistar rat assessed as protection against maximum electric shock-induced seizure at 30 mg/kg, po after 4 hrs; format: functional

## COc1ccc(/C=N/C(=O)Nc2ccc3c(c2)C(=O)C(=O)N3CN2CCCCC2)cc1
[1]
  Activity: inactive
[2]
  minimal effective dose: 300 mg/kg
[3]
  Activity: inactive
[4]
  minimal effective dose: 300 mg/kg

## O=C(/N=C/c1cccc([N+](=O)[O-])c1)Nc1ccc2c(c1)C(=O)C(=O)N2CN1CCCCC1
[1]
  Activity: inactive
[5]
  Activity: inactive
[6]
  Activity: inactive
[7]
  minimal effective dose: 300 mg/kg

## O=C(/N=C/c1ccccc1Cl)Nc1ccc2c(c1)C(=O)C(=O)N2CN1CCCCC1
[8]
  MTC: 300 mg/kg
[2]
  minimal effective dose: 300 mg/kg
[3]
  Activity: inactive
[9]
  minimal effective dose: 100 mg/kg
[4]
  minimal effective dose: 300 mg/kg
[10]
  MTC: 100 mg/kg

## O=C(/N=C/c1ccc(O)cc1)Nc1ccc2c(c1)C(=O)C(=O)N2CN1CCCCC1
[5]
  Activity: inactive
[11]
  Activity: Non-toxic
[6]
  Activity: inactive
[9]
  minimal effective dose: 300 mg/kg
[7]
  minimal effective dose: 300 mg/kg
[12]
  Activity: Non-toxic

## O=C(/N=C/c1ccc(O)cc1)Nc1ccc2c(c1)C(=O)C(=O)N2CN1CCOCC1
[13]
  Activity: 0%
[8]
  MTC: 300 mg/kg
[14]
  Activity: 0%
[15]
  Activity: 0%
[16]
  Activity: Non-toxic
[17]
  Activity: 0%
[6]
  Activity: inactive
[9]
  minimal effective dose: 300 mg/kg
[7]
  minimal effective dose: 300 mg/kg
[12]
  Activity: Non-toxic
[18]
  minimal effective dose: 30 mg/kg
[19]
  Activity: 50%

## O=C(/N=C/c1ccccc1)Nc1ccc2c(c1)C(=O)C(=O)N2CN1CCCCC1
[1]
  Activity: inactive
[3]
  Activity: inactive
[6]
  Activity: inactive
[4]
  minimal effective dose: 300 mg/kg

## CCC1(C)CC(=O)NC1=O (stereo unspecified) [ETHOSUXIMIDE]
[1]
  Activity: inactive
[11]
  Activity: Non-toxic
[6]
  Activity: inactive
[4]
  minimal effective dose: 100 mg/kg
[7]
  minimal effective dose: 300 mg/kg
[12]
  Activity: Non-toxic

## O=C(/N=C/c1cccc([N+](=O)[O-])c1)Nc1ccc2c(c1)C(=O)C(=O)N2CN1CCOCC1
[1]
  Activity: inactive
[5]
  Activity: inactive
[2]
  minimal effective dose: 300 mg/kg
[3]
  Activity: inactive

## O=C(/N=C/c1ccc(F)cc1)Nc1ccc2c(c1)C(=O)C(=O)N2CN1CCCCC1
[8]
  MTC: 300 mg/kg
[2]
  minimal effective dose: 300 mg/kg
[3]
  Activity: inactive
[9]
  minimal effective dose: 100 mg/kg
[4]
  minimal effective dose: 100 mg/kg
[10]
  MTC: 300 mg/kg

## O=C(/N=C/c1ccc(Br)cc1)Nc1ccc2c(c1)C(=O)C(=O)N2CN1CCCCC1
[13]
  Activity: 50%
[8]
  MTC: 300 mg/kg
[14]
  Activity: 50%
[5]
  Activity: inactive
[15]
  Activity: 100%
[16]
  Activity: Non-toxic
[17]
  Activity: 25%
[2]
  minimal effective dose: 300 mg/kg
[9]
  minimal effective dose: 30 mg/kg
[7]
  minimal effective dose: 300 mg/kg
[10]
  MTC: 100 mg/kg
[19]
  Activity: 100%

## Cc1ccc(/C=N/C(=O)Nc2ccc3c(c2)C(=O)C(=O)N3CN2CCCCC2)cc1
[1]
  Activity: inactive
[3]
  Activity: inactive
[6]
  Activity: inactive
[4]
  minimal effective dose: 300 mg/kg

## O=C(/N=C/c1ccccc1)Nc1ccc2c(c1)C(=O)C(=O)N2CN1CCOCC1
[1]
  Activity: inactive
[5]
  Activity: inactive
[2]
  minimal effective dose: 300 mg/kg
[3]
  Activity: inactive

## O=C1NC(=O)C(c2ccccc2)(c2ccccc2)N1 [PHENYTOIN]
[13]
  Activity: 75%
[8]
  MTC: 100 mg/kg
[14]
  Activity: 100%
[5]
  Activity: inactive
[15]
  Activity: 75%
[16]
  Activity: Non-toxic
[17]
  Activity: 25%
[2]
  minimal effective dose: 30 mg/kg
[3]
  Activity: inactive
[9]
  minimal effective dose: 30 mg/kg
[10]
  MTC: 100 mg/kg
[19]
  Activity: 75%

## O=C(/N=C/c1ccc([N+](=O)[O-])cc1)Nc1ccc2c(c1)C(=O)C(=O)N2CN1CCOCC1
[5]
  Activity: inactive
[11]
  Activity: Non-toxic
[6]
  Activity: inactive
[9]
  minimal effective dose: 100 mg/kg
[7]
  minimal effective dose: 300 mg/kg
[12]
  Activity: Non-toxic

## O=C(/N=C/c1ccc([N+](=O)[O-])cc1)Nc1ccc2c(c1)C(=O)C(=O)N2CN1CCCCC1
[13]
  Activity: 25%
[8]
  MTC: 300 mg/kg
[14]
  Activity: 50%
[15]
  Activity: 0%
[16]
  Activity: Non-toxic
[17]
  Activity: 0%
[2]
  minimal effective dose: 100 mg/kg
[9]
  minimal effective dose: 30 mg/kg
[4]
  minimal effective dose: 300 mg/kg
[7]
  minimal effective dose: 300 mg/kg
[10]
  MTC: 300 mg/kg
[19]
  Activity: 0%

## O=C(/N=C/c1ccc(F)cc1)Nc1ccc2c(c1)C(=O)C(=O)N2CN1CCOCC1
[13]
  Activity: 50%
[14]
  Activity: 50%
[15]
  Activity: 100%
[16]
  Activity: Non-toxic
[17]
  Activity: 25%
[11]
  Activity: Non-toxic
[2]
  minimal effective dose: 100 mg/kg
[9]
  minimal effective dose: 30 mg/kg
[4]
  minimal effective dose: 100 mg/kg
[7]
  minimal effective dose: 300 mg/kg
[10]
  MTC: 300 mg/kg
[19]
  Activity: 100%

## COc1ccc(/C=N/C(=O)Nc2ccc3c(c2)C(=O)C(=O)N3CN2CCOCC2)cc1
[1]
  Activity: inactive
[8]
  MTC: 300 mg/kg
[5]
  Activity: inactive
[6]
  Activity: inactive
[7]
  minimal effective dose: 300 mg/kg
[10]
  MTC: 300 mg/kg

## O=C(/N=C/c1ccccc1Cl)Nc1ccc2c(c1)C(=O)C(=O)N2CN1CCOCC1
[11]
  Activity: Non-toxic
[2]
  minimal effective dose: 300 mg/kg
[3]
  Activity: inactive
[9]
  minimal effective dose: 100 mg/kg
[4]
  minimal effective dose: 300 mg/kg
[10]
  MTC: 300 mg/kg

## O=C(/N=C/c1ccc(Br)cc1)Nc1ccc2c(c1)C(=O)C(=O)N2CN1CCOCC1
[11]
  Activity: Non-toxic
[2]
  minimal effective dose: 300 mg/kg
[3]
  Activity: inactive
[9]
  minimal effective dose: 100 mg/kg
[4]
  minimal effective dose: 300 mg/kg
[12]
  Activity: Non-toxic

## O=C(/N=C/c1ccc(Cl)cc1)Nc1ccc2c(c1)C(=O)C(=O)N2CN1CCOCC1
[13]
  Activity: 50%
[14]
  Activity: 50%
[15]
  Activity: 100%
[16]
  Activity: Non-toxic
[17]
  Activity: 25%
[11]
  Activity: Non-toxic
[2]
  minimal effective dose: 100 mg/kg
[9]
  minimal effective dose: 30 mg/kg
[4]
  minimal effective dose: 300 mg/kg
[7]
  minimal effective dose: 300 mg/kg
[12]
  Activity: Non-toxic
[19]
  Activity: 100%

## O=C(/N=C/c1ccc(Cl)cc1)Nc1ccc2c(c1)C(=O)C(=O)N2CN1CCCCC1
[8]
  MTC: 300 mg/kg
[2]
  minimal effective dose: 300 mg/kg
[3]
  Activity: inactive
[9]
  minimal effective dose: 100 mg/kg
[4]
  minimal effective dose: 300 mg/kg
[12]
  Activity: Non-toxic

## Cc1ccc(/C=N/C(=O)Nc2ccc3c(c2)C(=O)C(=O)N3CN2CCOCC2)cc1
[5]
  Activity: inactive
[11]
  Activity: Non-toxic
[6]
  Activity: inactive
[9]
  minimal effective dose: 300 mg/kg
[7]
  minimal effective dose: 300 mg/kg
[12]
  Activity: Non-toxic
